Reference: ChEMBL document CHEMBL1132822, “2,4,5-Trisubstituted imidazoles: novel nontoxic modulators of P-glycoprotein mediated multidrug resistance. Part 2” (Bioorg Med Chem Lett, 2000)

Assays:
[1] = target: ATP-dependent translocase ABCB1 (Homo sapiens, UniProt P08183); assay: Modulation of Pgp (P-glycoprotein) mediated multidrug resistance in CEM / VLB 1000 cell line; type: functional, cell-based, CCRF-CEM; settings: read-out: ED50 (the source's name)
Canis familiaris = assay: (§1) Oral bioavailability in dog (dose 10 mg/kg); type: functional, organism-based; settings: Canis lupus familiaris
[2] = Half life in Dog plasma at a dosage 5 mg/kg after intravenous administration; type: ADME, organism-based, Canis lupus familiaris; design: dose 5 mg/kg, route intravenous
[3] = as §1; type: ADME, organism-based, Canis lupus familiaris; settings: in vivo
Homo sapiens = assay: Compound concentration in plasma of healthy human (male) after 3-4h of 400 mg dose of compound given orally; type: functional

Chain of ATP-dependent translocase ABCB1 (P08183 whole entry): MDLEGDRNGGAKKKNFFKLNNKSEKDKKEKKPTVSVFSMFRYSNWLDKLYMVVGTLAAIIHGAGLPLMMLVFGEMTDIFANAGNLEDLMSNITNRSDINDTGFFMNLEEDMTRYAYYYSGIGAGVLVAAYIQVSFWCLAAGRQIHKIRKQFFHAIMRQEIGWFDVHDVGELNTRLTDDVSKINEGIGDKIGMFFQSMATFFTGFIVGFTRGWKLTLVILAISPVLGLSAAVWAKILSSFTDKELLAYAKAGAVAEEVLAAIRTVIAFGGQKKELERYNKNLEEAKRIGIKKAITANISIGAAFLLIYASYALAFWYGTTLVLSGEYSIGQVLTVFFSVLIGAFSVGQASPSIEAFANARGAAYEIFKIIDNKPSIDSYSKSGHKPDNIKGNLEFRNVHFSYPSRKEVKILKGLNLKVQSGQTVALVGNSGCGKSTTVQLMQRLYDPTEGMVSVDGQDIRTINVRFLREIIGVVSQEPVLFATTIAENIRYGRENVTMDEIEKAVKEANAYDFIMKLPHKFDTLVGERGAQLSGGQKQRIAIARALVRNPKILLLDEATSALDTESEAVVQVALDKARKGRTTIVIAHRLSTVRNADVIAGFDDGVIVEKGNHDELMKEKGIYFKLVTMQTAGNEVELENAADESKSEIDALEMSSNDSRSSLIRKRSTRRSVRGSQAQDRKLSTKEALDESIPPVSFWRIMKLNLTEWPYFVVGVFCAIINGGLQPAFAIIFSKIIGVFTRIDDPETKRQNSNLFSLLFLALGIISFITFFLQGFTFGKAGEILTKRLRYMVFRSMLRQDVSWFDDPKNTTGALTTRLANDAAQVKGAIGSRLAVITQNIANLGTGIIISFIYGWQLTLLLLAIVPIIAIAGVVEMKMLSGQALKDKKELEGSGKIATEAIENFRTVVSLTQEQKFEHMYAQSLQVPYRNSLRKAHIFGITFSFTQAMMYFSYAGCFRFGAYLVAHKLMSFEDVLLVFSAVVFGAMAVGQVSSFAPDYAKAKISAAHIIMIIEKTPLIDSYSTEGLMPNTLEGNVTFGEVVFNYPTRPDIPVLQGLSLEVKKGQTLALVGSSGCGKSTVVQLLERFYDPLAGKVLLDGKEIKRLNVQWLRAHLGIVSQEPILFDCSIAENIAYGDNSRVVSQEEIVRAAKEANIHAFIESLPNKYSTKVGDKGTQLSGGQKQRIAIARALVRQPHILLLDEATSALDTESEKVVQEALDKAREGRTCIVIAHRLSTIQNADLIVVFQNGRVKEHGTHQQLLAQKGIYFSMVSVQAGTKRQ

Row | SMILES | EC50 [1] [nM] | also measured
1 | CNc1ccc(-c2nc(-c3ccc(/C=C/C(=O)OC)cc3)[nH]c2-c2ccc(NC)cc2)cc1 | 200 | 
2 | COC(=O)/C=C/c1ccc(-c2nc(-c3ccc(N4CCCC4)cc3)c(-c3ccc(N4CCCC4)cc3)[nH]2)cc1 | 370 | 
3 | CCOC/C=C/c1ccc(-c2nc(-c3ccc(NC)cc3)c(-c3ccc(N4CCCC4)cc3)[nH]2)cc1 | 150 | 
4 | CCOC/C=C/c1ccc(-c2nc(-c3ccc(N4CCOCC4)cc3)c[nH]2)cc1 | 370 | 
5 | CCOC/C=C/c1ccc(-c2nc(-c3ccc(NCC(C)C)cc3)c[nH]2)cc1 | 250 | 
6 | CNc1ccc(-c2[nH]c(-c3ccc(/C=C/C(=O)OC)cc3)nc2-c2ccc(N(C)C)cc2)cc1 | 130 | 
7 | CCN(CC)c1ccc(-c2[nH]c(-c3ccc(/C=C/C(=O)OC)cc3)nc2-c2ccc(N)cc2)cc1 | 310 | 
8 | CCCCN(CCCC)c1ccc(-c2[nH]c(-c3ccc(/C=C/C(=O)OC)cc3)nc2-c2ccc(NC)cc2)cc1 | 2100 | 
9 | CCN(CC)c1ccc(-c2nc(-c3ccc(/C=C/C(=O)OC)cc3)[nH]c2-c2ccc(N(CC)CC)cc2)cc1 | 570 | 
10 | C=CCN(CC=C)c1ccc(-c2nc(-c3ccc(/C=C/C(=O)OC)cc3)[nH]c2-c2ccc(N(CC=C)CC=C)cc2)cc1 | 5500 | 
11 | CCOC/C=C/c1ccc(-c2nc(-c3ccc(N(CC)CC)cc3)c[nH]2)cc1 | 300 | 
12 | COC(=O)/C=C/c1ccc(-c2nc(-c3ccc(N)cc3)c(-c3ccc(N(C)C)cc3)[nH]2)cc1 | 590 | 
13 | CCOC/C=C/c1ccc(-c2nc(-c3ccc(NC(C)C)cc3)c[nH]2)cc1 | 340 | 
14 | CCCN(CCC)c1ccc(-c2c[nH]c(-c3ccc(/C=C/COCC)cc3)n2)cc1 | 280 | 
15 | CCOC/C=C/c1ccc(-c2nc(-c3ccc(N(CC)CC)cc3)c(-c3ccc(N(CC)CC)cc3)[nH]2)cc1 | 260 | 
16 | COC(=O)/C=C/c1ccc(-c2nc(-c3ccc(N(C)C)cc3)c(-c3ccc(N(C)C)cc3)[nH]2)cc1 | 300 | 
17 | CCCN(CCC)c1ccc(-c2[nH]c(-c3ccc(/C=C/C(=O)OC)cc3)nc2-c2ccc(NC)cc2)cc1 | 180 | 
18 | CCOC/C=C/c1ccc(-c2nc(-c3ccc(F)cc3)c(-c3ccc(NC(C)C)cc3)[nH]2)cc1 | 160 | bioavailability (Canis familiaris): 45%; half-life [2]: 1.27 h
19 | CCOC/C=C/c1ccc(-c2nc(-c3ccc(N4CCOCC4)cc3)c(-c3ccc(N4CCOCC4)cc3)[nH]2)cc1 | 220 | 

These reach a lower EC50 [1]. Values come first.

Row | EC50 [1] [nM] | SMILES | also measured
20 | 120 | CNc1ccc(-c2[nH]c(-c3ccc(/C=C/C(=O)OC)cc3)nc2-c2ccc(NC(C)C)cc2)cc1 | 
21 | 110 | CNc1ccc(-c2[nH]c(-c3ccc(/C=C/CCOC)cc3)nc2-c2ccc(N(C)C)cc2)cc1 | 
22 | 80 | CCOC/C=C/c1ccc(-c2nc(-c3ccc(N(C)C)cc3)c(-c3ccc(N(C)C)cc3)[nH]2)cc1 | half-life [2]: 0.5 h; bioavailability [3]: 35%
23 | 70 | CCN(CC)c1ccc(-c2[nH]c(-c3ccc(/C=C/C(=O)OC)cc3)nc2-c2ccc(NC)cc2)cc1 | 
24 | 60 | CCOCC/C=C/c1ccc(-c2nc(-c3ccc(NC)cc3)c(-c3ccc(N(CC)CC)cc3)[nH]2)cc1 | 
25 | 50 | CCOC/C=C/c1ccc(-c2nc(-c3ccc(NC(C)C)cc3)c(-c3ccc(NC)cc3)[nH]2)cc1 | bioavailability (Canis familiaris): 36%; half-life [2]: 1.35 h
26 | 50 | CCNc1ccc(-c2[nH]c(-c3ccc(/C=C/COCC)cc3)nc2-c2ccc(NC(C)C)cc2)cc1 | 
27 | 50 | CCOC/C=C/c1ccc(-c2nc(-c3ccc(NC(C)C)cc3)c(-c3ccc(NC(C)C)cc3)[nH]2)cc1 | Concentration (Homo sapiens): 3 µM; bioavailability (Canis familiaris): 41%; half-life [2]: 2.79 h
